Converted amounts (≈) assume the structure as drawn. Where two headings read alike, the source gives them in different places. Bridge positions count the residues as written; N and C are the ends. Peptide text beside a SMILES is read from it.
What was measured:
E. faecalis NCTC 12697 = conditions: checkerboard MIC, planktonic E. faecalis NCTC 12697, 37 °C, 24 h, OD 550 nm
Method: (§1) The bacteria were cultured, subcultured, diluted, and incubated as the methods of the MIC assay. The pure peptides and antibiotics were weighed and, respectively, dissolved in DMSO and dd water to make the final concentration of 2× MIC. […] Different concentrations of peptide and antibiotic solutions were added to a 96-well plate in the form of a checkerboard grid. The blank control and growth control were still 100 µL medium and 100 µL bacterial culture. The plate was incubated at 37 °C for 24 h. After that, the plate reader was used to monitor the absorbance of each well at 550 nm (The Synergy TM HT, BioTek, Winooski, VT, USA).
(§2) Parameter fractional inhibitory concentration indices (FICIs) were used to evaluate the synergistic effect, and the value of that was calculated as follows:FICI = FICa + FICb FICa = MIC combination peptide/MIC single peptide FICb = MIC combination antibiotic/MIC single antibiotic
(§3) The FICI value was interpreted as “synergy” (FICI ≤ 0.5), “no interaction” (0.5 < FICI ≤ 4), or “antagonism” (FICI > 4).

S. aureus ATCC 6538 = conditions: checkerboard MIC, planktonic S. aureus ATCC 6538, 37 °C, 24 h, OD 550 nm
Method: as §1, §2, §3

[1] = test system: P. aeruginosa ATCC CRM 9027; conditions: checkerboard MIC, planktonic P. aeruginosa ATCC CRM 9027, 37 °C, 24 h, OD 550 nm
Method: as §1, §2, §3

K. pneumoniae ATCC 43816 = conditions: checkerboard MIC, planktonic K. pneumoniae ATCC 43816, 37 °C, 24 h, OD 550 nm
Method: as §1, §2, §3

MRSA NCTC 12493 = conditions: checkerboard MIC, planktonic MRSA NCTC 12493, 37 °C, 24 h, OD 550 nm
Method: as §1, §2, §3

[2] = test system: K. pneumoniae ATCC 43816 biofilm; assay type: cell-based, Klebsiella pneumoniae; conditions: for MBIC: lowest concentration inhibiting at least 90% of biofilm formation; for MBEC: minimum concentration eradicating at least 99% of the biofilm
From the text: (§4) The minimum bactericidal concentration (MBC) is defined as the lowest antibiotic concentration that kills 99.9% of the inoculum. The minimum biofilm inhibitory concentration (MBIC) is the lowest concentration that inhibits at least 90% of the formation of biofilm. The minimum biofilm eradication concentration (MBEC) is the minimum concentration that can eradicate at least 99% of the biofilm. In addition to the eight microorganisms described previously, this experiment was also applied to P. aeruginosa (ATCC 27853, ATCC BAA-2108, P. aeruginosa 01, P. aeruginosa 14).

[3] = test system: K. pneumoniae (ATCC 43816); assay: microbe, parasite or virus in culture; assay type: cell-based, Klebsiella pneumoniae; conditions: planktonic K. pneumoniae ATCC 43816; for MIC: 37 °C, nine repeats of three independent experiments; for MBC: lowest concentration killing 99.9% of inoculum
From the text: (§5) The minimum inhibitory concentration (MIC) is the minimum concentration of an antimicrobial agent that prevents the visible growth of a bacterium or bacteria. The MIC is an important piece of data for research on new antimicrobial agents and helps in the effective selection of antibiotics to improve the success of treatment. The minimum bactericidal concentration (MBC) is defined as the lowest antibiotic concentration that kills 99.9% of the inoculum. This study mainly contained eight different microorganisms, which were Staphylococcus aureus (ATCC 6538), methicillin-resistant Staphylococcus aureus (NCTC 12493), Enterococcus faecalis (NCTC 12697), Escherichia coli (ATCC 8739), Klebsiella pneumoniae (ATCC 43816), Pseudomonas aeruginosa (ATCC CRM 9027), Acinetobacter baumannii (BAA 747), and Candida albicans (ATCC 10231). The bacteria were incubated in the compatible medium at 37 °C overnight.

[4] = test system: S. aureus ATCC 6538 biofilm; assay type: cell-based, Staphylococcus aureus; conditions: for MBIC: lowest concentration inhibiting at least 90% of biofilm formation; for MBEC: minimum concentration eradicating at least 99% of the biofilm
From the text: as §4

[5] = test system: E. faecalis NCTC 12697 biofilm; assay type: cell-based, Enterococcus faecalis; conditions: for MBIC: lowest concentration inhibiting at least 90% of biofilm formation; for MBEC: minimum concentration eradicating at least 99% of the biofilm
From the text: as §4

S. aureus (ATCC 6538) = assay: microbe, parasite or virus in culture; assay type: cell-based, Staphylococcus aureus; conditions: planktonic S. aureus ATCC 6538; for MIC: 37 °C, nine repeats of three independent experiments, read-out: MIC; for MBC: lowest concentration killing 99.9% of inoculum, read-out: MBC
From the text: as §5

A. baumannii (BAA 747) = assay: microbe, parasite or virus in culture; assay type: cell-based, Acinetobacter baumannii; conditions: planktonic A. baumannii BAA 747; for MIC: 37 °C, nine repeats of three independent experiments; for MBC: lowest concentration killing 99.9% of inoculum
From the text: as §5

[6] = test system: P. aeruginosa ATCC BAA-2108 biofilm; assay type: cell-based, Pseudomonas aeruginosa; conditions: for MBIC: lowest concentration inhibiting at least 90% of biofilm formation; for MBEC: minimum concentration eradicating at least 99% of the biofilm
From the text: as §4

P. aeruginosa 14 biofilm = assay type: cell-based, Pseudomonas aeruginosa; conditions: for MBIC: lowest concentration inhibiting at least 90% of biofilm formation; for MBEC: minimum concentration eradicating at least 99% of the biofilm
From the text: as §4

[7] = test system: P. aeruginosa ATCC 27853 biofilm; assay type: cell-based, Pseudomonas aeruginosa; conditions: for MBIC: lowest concentration inhibiting at least 90% of biofilm formation; for MBEC: minimum concentration eradicating at least 99% of the biofilm
From the text: as §4

[8] = test system: P. aeruginosa ATCC CRM 9027 biofilm; assay type: cell-based, Pseudomonas aeruginosa; conditions: for MBIC: lowest concentration inhibiting at least 90% of biofilm formation; for MBEC: minimum concentration eradicating at least 99% of the biofilm
From the text: as §4

P. aeruginosa 01 biofilm = assay type: cell-based, Pseudomonas aeruginosa; conditions: for MBIC: lowest concentration inhibiting at least 90% of biofilm formation; for MBEC: minimum concentration eradicating at least 99% of the biofilm
From the text: as §4

[9] = test system: P. aeruginosa ATCC CRM 9027 biofilm; assay: Peptide and antibiotic co-administration MBIC checkerboard assay; assay type: cell-based, Pseudomonas aeruginosa; conditions: 24 h, crystal violet, 595 nm
From the text: The plate was then carefully cleaned under running water.

[10] = peptide combined with gentamicin
[11] = peptide combined with levofloxacin
[12] = peptide combined with vancomycin

CC[C@H](C)[C@H](NC(=O)[C@H](CCCCN)NC(=O)[C@H](CCCCN)NC(=O)CNC(=O)[C@H](C)NC(=O)CNC(=O)[C@H](CC(C)C)NC(=O)[C@@H](NC(=O)CNC(=O)[C@H](CO)NC(=O)[C@H](CC(C)C)NC(=O)[C@H](CC(C)C)NC(=O)CN)C(C)C)C(=O)N[C@H](C(=O)N[C@H]1CSSC[C@@H](C(=O)O)NC(=O)[C@H](CCCNC(=N)N)NC(=O)CNC(=O)[C@H](CO)NC(=O)[C@H](CC(C)C)NC(=O)CNC1=O)C(C)C [Nigrosin-6VL] (H-GLLSGVLGAGKKIVCGLSGRC-OH; disulfide 15-21)
FICI (E. faecalis NCTC 12697; peptide combined with cefepime): 0.125 | FICI (E. faecalis NCTC 12697; [10]): 0.625 | FICI (E. faecalis NCTC 12697; [11]): 0.625 | FICI (E. faecalis NCTC 12697; [12]): 0.625 | FICI (S. aureus ATCC 6538; peptide combined with cefepime): 0.625 | FICI (S. aureus ATCC 6538; [10]): 1.5 | FICI (S. aureus ATCC 6538; [11]): 0.625 | FICI (S. aureus ATCC 6538; [12]): 2.25 | FICI ([1]; peptide combined with cefepime): 0.5 | FICI [1, 10]: 0.5 | FICI [1, 11]: 0.5 | FICI [1, 12]: >4 | FICI (K. pneumoniae ATCC 43816; peptide combined with cefepime): 0.1875 | FICI (K. pneumoniae ATCC 43816; [10]): 0.1875 | FICI (K. pneumoniae ATCC 43816; [11]): 0.625 | FICI (K. pneumoniae ATCC 43816; [12]): 1.125 | FICI (MRSA NCTC 12493; peptide combined with cefepime): 0.75 | FICI (MRSA NCTC 12493; [10]): 0.5 | FICI (MRSA NCTC 12493; [11]): 2 | FICI (MRSA NCTC 12493; [12]): 1 | MBIC [2]: >128/>128 µM | MBEC [2]: >128/>128 µM | MIC [3]: 128 µM (≈ 254 µg/mL) | MBC [3]: 128 µM (≈ 254 µg/mL) | MBIC [4]: 128/>128 µM | MBEC [4]: 128/>128 µM | MBIC [5]: >128/>128 µM | MBEC [5]: >128/>128 µM | MIC (S. aureus (ATCC 6538)): 16 µM (≈ 31.8 µg/mL) | MBC (S. aureus (ATCC 6538)): 32 µM (≈ 63.6 µg/mL) | MIC (A. baumannii (BAA 747)): > 128 µM | MBC (A. baumannii (BAA 747)): > 128 µM | MBIC [6]: >128/>128 µM | MBEC [6]: >128/>128 µM | MBIC (P. aeruginosa 14 biofilm): >128/>128 µM | MBEC (P. aeruginosa 14 biofilm): >128/>128 µM | MBIC [7]: >128/>128 µM | MBEC [7]: >128/>128 µM | MBIC [8]: >128/>128 µM | MBEC [8]: >128/>128 µM | MBIC (P. aeruginosa 01 biofilm): >128/>128 µM | MBEC (P. aeruginosa 01 biofilm): >128/>128 µM | Biofilm FICI ([9]; peptide combined with cefepime): 0.3125 | Biofilm FICI [9, 10]: 0.5

CC[C@H](C)[C@H](NC(=O)[C@H](CCCCN)NC(=O)[C@H](CCCCN)NC(=O)CNC(=O)[C@H](C)NC(=O)[C@H](CCCNC(=N)N)NC(=O)[C@H](CC(C)C)NC(=O)[C@@H](NC(=O)[C@H](C)NC(=O)[C@H](CCCNC(=N)N)NC(=O)[C@H](CC(C)C)NC(=O)[C@H](CC(C)C)NC(=O)CN)C(C)C)C(=O)N[C@H](C(=O)N[C@H]1CSSC[C@@H](C(=O)O)NC(=O)[C@H](CCCNC(=N)N)NC(=O)CNC(=O)[C@H](CO)NC(=O)[C@H](CC(C)C)NC(=O)CNC1=O)C(C)C [Peptide 2170-2R] (H-GLLRAVLRAGKKIVCGLSGRC-OH; disulfide 15-21)
FICI (E. faecalis NCTC 12697; peptide combined with cefepime): 0.1562 | FICI (E. faecalis NCTC 12697; [10]): 0.625 | FICI (E. faecalis NCTC 12697; [11]): 0.625 | FICI (E. faecalis NCTC 12697; [12]): 0.625 | FICI (S. aureus ATCC 6538; peptide combined with cefepime): 1 | FICI (S. aureus ATCC 6538; [10]): 1 | FICI (S. aureus ATCC 6538; [11]): 0.625 | FICI (S. aureus ATCC 6538; [12]): 0.625 | FICI ([1]; peptide combined with cefepime): 0.5 | FICI [1, 10]: 0.5 | FICI [1, 11]: 0.625 | FICI [1, 12]: 1.125 | FICI (K. pneumoniae ATCC 43816; peptide combined with cefepime): 0.1875 | FICI (K. pneumoniae ATCC 43816; [10]): 0.1562 | FICI (K. pneumoniae ATCC 43816; [11]): 1 | FICI (K. pneumoniae ATCC 43816; [12]): 1.125 | FICI (MRSA NCTC 12493; peptide combined with cefepime): 0.75 | FICI (MRSA NCTC 12493; [10]): 0.375 | FICI (MRSA NCTC 12493; [11]): 1.125 | FICI (MRSA NCTC 12493; [12]): 0.625 | MBIC [2]: 32 µM | MBEC [2]: > 128 µM | MIC [3]: 32 µM (≈ 69.4 µg/mL) | MBC [3]: 32 µM (≈ 69.4 µg/mL) | MBIC [4]: 4 µM | MBEC [4]: 16 µM | MBIC [5]: 32 µM | MBEC [5]: > 128 µM | MIC (S. aureus (ATCC 6538)): 4 µM (≈ 8.67 µg/mL) | MBC (S. aureus (ATCC 6538)): 8 µM (≈ 17.3 µg/mL) | MIC (A. baumannii (BAA 747); read-out: MIC): 4 µM (≈ 8.67 µg/mL) | MBC (A. baumannii (BAA 747); read-out: MBC): 8 µM (≈ 17.3 µg/mL) | MBIC [6]: >128/>128 µM | MBEC [6]: >128/>128 µM | MBIC (P. aeruginosa 14 biofilm): >128/>128 µM | MBEC (P. aeruginosa 14 biofilm): >128/>128 µM | MBIC [7]: 8 µM | MBEC [7]: 16 µM | MBIC [8]: >128/>128 µM | MBEC [8]: >128/>128 µM | MBIC (P. aeruginosa 01 biofilm): 32 µM | MBEC (P. aeruginosa 01 biofilm): 64 µM | Biofilm FICI ([9]; peptide combined with cefepime): 0.5 | Biofilm FICI [9, 10]: 1

Source: PMC11274128, “Modification and Synergistic Studies of a Novel Frog Antimicrobial Peptide against Pseudomonas aeruginosa Biofilms” (Antibiotics, 2024)
